This note sets out measurements from patent publication US20240294491A1, “SALT OF HETEROCYCLIC COMPOUND WITH ANTI-MALARIA ACTIVITY, AND CRYSTALS THEREOF” (priority 2021, published 2024).

Values joined by “and” are separate entries in the source; they are usually repeats but may differ in a detail not shown here. Equal entries are not always repeated.

Experiment [1] relates to K1 strain of Plasmodium falciparum (drug-resistant strain). The experiment in a line: in vitro antimalarial activity, p-LDH colorimetric protozoan growth assay, K1 strain. It counts as cell-based. The conditions noted are these: K1, 72 h, read-out: 50% protozoan-growth-inhibitory concentration (IC50 value). The protocol: (§1) With use of 3D7 and K1 strains, which are a drug-sensitive strain and drug-resistant strain of Plasmodium falciparum, respectively, provided by The Tropical Disease Research Center, Kitasato University, the in vitro antimalarial activity of the compound for these plasmodia was determined. In culture of the test protozoan parasites, maintenance and subculture were performed with a partially modified version of a method by Trager and Jensen (Trager, W and Jensen, J.: Human malaria parasites in continuous culture, Science, 193:673-677, (1976)), and the resultants were used. […]
(§2) The protozoan infection rate was maintained within the range of 0.25 to 10%. Drug sensitivity test was carried out with a modified version of a method by Desjardins et al. (Desjardins, R. E., Canfield, C. J., Haynes, D. E. and Chulay, J. D.: Quantitative assessment of antimalarial activity in vitro by a semiautomated microdilution technique. Antimicrob. Agents Chemother., 16:710-718 (1979)). […] Blue formazan, a product generated through the reaction, was detected by measuring absorbance at a measurement wavelength of 660 nm by using a microplate reader to determine the presence or absence of protozoan growth by colorimetry. […]

For experiment [2], the system named is 3D7 strain of Plasmodium falciparum (drug-sensitive strain). The experiment in a line: in vitro antimalarial activity, p-LDH colorimetric protozoan growth assay, 3D7 strain. The class given is cell-based. The conditions noted are these: 72 hours culture, p-LDH colorimetry, read-out: 50% protozoan-growth-inhibitory concentration (IC50 value). The protocol: as §1, §2

For experiment [3], the system named is Pf3D7^0087N9 strain of Plasmodium falciparum. The experiment can be described thus: drug efficacy evaluation with a humanized mouse malaria model. It counts as in vivo. The conditions noted are these: humanized NSG mice, oral once per day for 3 days, treatment initiated 72 hours after infection, infection rate by flow cytometry. The protocol:
The following drug efficacy evaluation with a humanized mouse malaria model was carried out by The Art of Discovery S. L. (Vizcaya, Spain) with use of compound (I). In short, erythrocytes infected with Plasmodium falciparum were intravenously inoculated into mice with transplanted human erythrocytes, and drug treatment was initiated after the lapse of 72 hours. The therapeutic effect in terms of infection rates was evaluated by determining the proportion of infected erythrocytes in peripheral blood.
Used in the present test was a Pf3D7^0087N9 strain of Plasmodium falciparum, which was produced according to study described in Reference (1) shown below. Human erythrocytes were transplanted into female NSG (NOD-scid IL-2Rγnull) immunodeficient mice, and the proportion of human erythrocytes in all the erythrocytes in peripheral blood was maintained to be 40% or more throughout the test period. […] Specifically, 2 μL of peripheral blood collected from an infected mouse was stained with TER-119-Phycoeruthrine (mouse erythrocyte marker) and SYTO-16 (dye for nucleic acid staining), and analyzed by flow cytometry. […] 2008 May 21; 3(5):e2252. • (2) Jimenez-Diaz et al. Quantitative measurement of Plasmodium-infected erythrocytes in murine models of malaria by flow cytometry using bidimensional assessment of SYTO-16 fluorescence. […]
Background: Flow cytometry measures light scatter and fluorescence of single cells or particles in a stream.

Regarding `C[C@@H](Oc1ccc(CNC(=O)c2cc(-n3cnc(C(F)(F)F)n3)c(N)nc2N)cc1)C(F)(F)F` [compound (I), 2,6-diamino-5-[3-(trifluoromethyl)-1H-1,2,4-triazol-1-yl]-N-(4-{[(2R)-1,1,1-trifluoropropan-2-yl]oxy}benzyl)pyridine-3-carboxamide], the IC50 in experiment [1] is 0.043 µg/mL and 89 nM; in experiment [2], 0.026 µg/mL and 53 nM. For the same compound, the “ED90 (daily dose with which the infection rate on day 7 after the infection decreased by 90% from that in a nontreatment group)” value in experiment [3] came to 3.2 mg/kg/day.
